Data reported in US12421254B2, “KRAS modulators and uses thereof” (Quanta Therapeutics, Inc., priority 2023, dated 2025).

Columns and labels:
[1] = target: GST-tagged KRAS-G12V (2-169) (Homo sapiens, UniProt P01116, G12V); assay: Nucleotide exchange assay (NEA), SOS-mediated, HTRF, KRAS G12V; assay type: biochemical; settings: Table 4; IC50 extracted at 90 min; 80 nM SOS
Method in brief: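 Exchange onto fluorescent GTP-DY-647P1 (150 nM final) catalysed by 80 nM SOS1cat was followed by Tb-anti-GST HTRF at RT for up to 90 min, after 1 h compound pre-incubation with 0.25 nM GST-tagged KRAS-G12V (2-169), pH 7.3. DMSO = 0%, no-SOS blank = 100%; 4-parameter IC50 taken at 90 min.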

[2] = target: GST-tagged KRAS-G12D (2-169) (Homo sapiens, UniProt P01116, G12D); assay: Nucleotide exchange assay (NEA), SOS-mediated, HTRF, KRAS G12D; assay type: biochemical; settings: Table 4; IC50 extracted at 30 min; 20 nM SOScat; read-out: NEA G12D IC50
Chain of GST-tagged KRAS-G12D (2-169) (P01116 2-169 isoform P01116-2 G12D): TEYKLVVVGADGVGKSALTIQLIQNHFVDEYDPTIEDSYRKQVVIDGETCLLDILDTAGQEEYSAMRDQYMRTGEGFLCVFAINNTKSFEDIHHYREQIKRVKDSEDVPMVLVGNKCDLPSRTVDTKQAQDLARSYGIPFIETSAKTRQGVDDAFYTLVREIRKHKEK
Method in brief: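 SOS1cat-driven loading of fluorescent GTP-DY-647P1 (150 nM) onto GST-KRAS-G12D (2-169, 0.25 nM) read by time-resolved FRET; SOScat 20 nM, compound preincubated with KRAS 1 h at RT. Signal blanked to no-SOS reactions, normalized to DMSO; IC50 fitted from the 30-min read.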

[3] = system: phospho-ERK in GP2D (KRAS-G12D) cells; assay: pERK In Cell Western (ICW) assay (Method B), GP2D; assay type: cell-based; settings: GP2d, 3 h, Table 4
Method in brief: (§1)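 Per well, infrared pERK immunofluorescence was divided by DRAQ5 nuclear signal following 3 h treatment with a 9-point, ½-log compound series; seeding was 5,000 (AGS) or 10,000 (GP2D, SW620) cells per well. Percent-of-blank data were fitted to a four-parameter model for IC50.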

[4] = system: phospho-ERK in SW620 (KRAS-G12V) cells; assay: pERK In Cell Western (ICW) assay (Method B), SW620; assay type: cell-based
Method in brief: as §1

[5] = Homo sapiens, SW-620, 3 h, Table 4

Chain of GST-tagged KRAS-G12V (2-169) (P01116 2-169 isoform P01116-2 G12V): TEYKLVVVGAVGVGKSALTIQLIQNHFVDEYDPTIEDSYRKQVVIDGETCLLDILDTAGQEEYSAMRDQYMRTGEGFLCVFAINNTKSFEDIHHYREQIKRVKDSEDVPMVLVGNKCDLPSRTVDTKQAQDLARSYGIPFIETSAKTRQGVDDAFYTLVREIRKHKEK

SMILES	IC50 [1] [nM]	IC50 [2] [nM]	IC50 [3] [nM]	IC50 [4, 5] [nM]	IC50 ([4]; Table 4, 3 hours) [nM]
CC(c1cccnc1N)N(CCC#N)c1nc(OC[C@@]23CCCN2C[C@H](F)C3)nc(N2CC3(CCc4sc(N)c(C#N)c43)C2)n1 (stereo partly drawn) [Compound 118, 2-amino-1′-[4-[1-(2-amino-3-pyridyl)ethyl-(2-cyanoethyl)amino]-6-[[(2R,8S)-2-fluoro-1,2,3,5,6,7-hexahydropyrrolizin-8-yl]methoxy]-1,3,5-triazin-2-yl]spiro[5,6-dihydrocyclopenta[b]thiophene-4,3′-azetidine]-3-carbonitrile]	< 10	< 10	< 10	< 10	
C[C@H](c1cccnc1N)N(C)c1nc(OC[C@@]23CCCN2C[C@H](F)C3)nc(N2CC(C)(c3csc(N)c3C#N)C2)n1 [Compound 172, 2-amino-4-[1-[4-[[(1R)-1-(2-amino-3-pyridyl)ethyl]-methyl-amino]-6-[[(2R,8S)-2-fluoro-1,2,3,5,6,7-hexahydropyrrolizin-8-yl]methoxy]-1,3,5-triazin-2-yl]-3-methyl-azetidin-3-yl]thiophene-3-carbonitrile]	< 10	< 10	100 to 1000	10 to 100	
N#Cc1c(N)sc2c1C1(CC2)CN(c2nc(OC[C@@]34CCCN3C[C@H](F)C4)nc(N(CCO)Cc3cn[nH]c3)n2)C1 [Compound 137, 2-amino-1′-[4-[[(2R,8S)-2-fluoro-1,2,3,5,6,7-hexahydropyrrolizin-8-yl]methoxy]-6-[2-hydroxyethyl(1H-pyrazol-4-ylmethyl)amino]-1,3,5-triazin-2-yl]spiro[5,6-dihydrocyclopenta[b]thiophene-4,3′-azetidine]-3-carbonitrile]	10 to 100	100 to 1000	1000 to 20000	1000 to 20000	
N#Cc1c(N)sc2c1C1(CC2)CN(c2nc(OCC3(C#N)CC3)nc(OCC3(CN4CCOCC4)CC3)n2)C1 [Compound 38, 2-amino-1′-[4-[(1-cyanocyclopropyl)methoxy]-6-[[1-(morpholinomethyl)cyclopropyl]methoxy]-1,3,5-triazin-2-yl]spiro[5,6-dihydrocyclopenta[b]thiophene-4,3′-azetidine]-3-carbonitrile]	< 10	10 to 100	1000 to 20000	100 to 1000	
CC(c1nccnc1N)N(C)c1nc(OC[C@@]23CCCN2C[C@H](F)C3)nc(N2CC3(C2)SCc2sc(N)c(C#N)c23)n1 (stereo partly drawn) [Compound 134, 2-amino-1′-[4-[1-(3-aminopyrazin-2-yl)ethyl-methyl-amino]-6-[[(2R,8S)-2-fluoro-1,2,3,5,6,7-hexahydropyrrolizin-8-yl]methoxy]-1,3,5-triazin-2-yl]spiro[6H-thieno[3,4-b]thiophene-4,3′-azetidine]-3-carbonitrile]	< 10	< 10	10 to 100	< 10	
N#Cc1c(N)sc2c1C1(CC2)CN(c2nc(OC[C@@]34CCCN3C[C@H](F)C4)nc(N(CCO)Cc3cc(F)cnc3N)n2)C1 [Compound 133, 2-amino-1′-[4-[(2-amino-5-fluoro-3-pyridyl)methyl-(2-hydroxyethyl)amino]-6-[[(2R,8S)-2-fluoro-1,2,3,5,6,7-hexahydropyrrolizin-8-yl]methoxy]-1,3,5-triazin-2-yl]spiro[5,6-dihydrocyclopenta[b]thiophene-4,3′-azetidine]-3-carbonitrile]	< 10	< 10	100 to 1000	10 to 100	
C[C@@]1(O)C[C@H](O)CN(c2nc(OC[C@@]34CCCN3C[C@H](F)C4)nc(N3CC4(CCc5sc(N)c(C#N)c54)C3)n2)C1 [Compound 67, 2-amino-1′-[4-[(3R,5S)-3,5-dihydroxy-3-methyl-1-piperidyl]-6-[[(2R,8S)-2-fluoro-1,2,3,5,6,7-hexahydropyrrolizin-8-yl]methoxy]-1,3,5-triazin-2-yl]spiro[5,6-dihydrocyclopenta[b]thiophene-4,3′-azetidine]-3-carbonitrile]	10 to 100	10 to 100	100 to 1000	≥ 20000	
N#CCC1C=C(F)CN(c2nc(OCC3(CN4CCOCC4)CC3)nc(N3CC4(CCc5sc(N)c(C#N)c54)C3)n2)C1 (stereo not shown) [Compound 65, 2-amino-1′-[4-[3-(cyanomethyl)-5-fluoro-3,6-dihydro-2H-pyridin-1-yl]-6-[[1-(morpholinomethyl)cyclopropyl]methoxy]-1,3,5-triazin-2-yl]spiro[5,6-dihydrocyclopenta[b]thiophene-4,3′-azetidine]-3-carbonitrile]	10 to 100	100 to 1000	1000 to 20000	1000 to 20000	
C[C@H](c1cccnc1N)N(CC(F)F)c1nc(OC[C@@]23CCCN2C[C@H](F)C3)nc(N2CC3(C2)SCc2sc(N)c(C#N)c23)n1 [Compound 183, 2-amino-1′-[4-[[(1R)-1-(2-amino-3-pyridyl)ethyl]-(2,2-difluoroethyl)amino]-6-[[(2R,8S)-2-fluoro-1,2,3,5,6,7-hexahydropyrrolizin-8-yl]methoxy]-1,3,5-triazin-2-yl]spiro[6H-thieno[3,4-b]thiophene-4,3′-azetidine]-3-carbonitrile]	< 10	< 10	< 10	< 10	
N#CCC12CC1CCN(c1nc(OC[C@@]34CCCN3C[C@H](F)C4)nc(N3CC4(CCc5sc(N)c(C#N)c54)C3)n1)C2 (stereo partly drawn) [Compound 43, 2-amino-1′-[4-[1-(cyanomethyl)-3-azabicyclo[4.1.0]heptan-3-yl]-6-[[(2R,8S)-2-fluoro-1,2,3,5,6,7-hexahydropyrrolizin-8-yl]methoxy]-1,3,5-triazin-2-yl]spiro[5,6-dihydrocyclopenta[b]thiophene-4,3′-azetidine]-3-carbonitrile]	10 to 100	10 to 100	1000 to 20000	1000 to 20000	
N#Cc1c(N)sc2c1C1(CC2)CN(c2nc(OC[C@@]34CCCN3C[C@H](F)C4)nc(N3CCOCC(C#N)C3)n2)C1 (single isomer, unassigned) [Compound 91A, (6*)-4-[4-(2-amino-3-cyano-spiro[5,6-dihydrocyclopenta[b]thiophene-4,3′-azetidine]-1′-yl)-6-[[(2R,8S)-2-fluoro-1,2,3,5,6,7-hexahydropyrrolizin-8-yl]methoxy]-1,3,5-triazin-2-yl]-1,4-oxazepane-6-carbonitrile]	< 10	< 10	100 to 1000		100 to 1000
C[C@H](c1cccnc1N)N(CC(F)F)c1nc(OC[C@@H]2CCCN2C)nc(N2CC3(C2)SCc2sc(N)c(C#N)c23)n1 [Compound 196, 2′-amino-1-(4-(((R)-1-(2-aminopyridin-3-yl)ethyl)(2,2-difluoroethyl)amino)-6-(((S)-1-methylpyrrolidin-2-yl)methoxy)-1,3,5-triazin-2-yl)-6′H-spiro[azetidine-3,4′-thieno[3,4-b]thiophene]-3′-carbonitrile]	< 10	< 10	10 to 100	< 10	
CCN(c1nc(OCC(C)N(C)C)nc(N2CC3(C2)SCc2sc(N)c(C#N)c23)n1)[C@H](C)c1cccnc1N (stereo partly drawn) [Compound 177, 2-amino-1′-[4-[[(1R)-1-(2-amino-3-pyridyl)ethyl]-ethyl-amino]-6-[2-(dimethylamino)propoxy]-1,3,5-triazin-2-yl]spiro[6H-thieno[3,4-b]thiophene-4,3′-azetidine]-3-carbonitrile]	< 10	10 to 100	100 to 1000	100 to 1000	
CC(c1cccnc1N)N(C)c1nc(OCC2(CN3CCOCC3)CC2)nc(N2CC3(C2)SCc2sc(N)c(C#N)c23)n1 (stereo not shown) [Compound 128, 2-amino-1′-[4-[1-(2-amino-3-pyridyl)ethyl-methyl-amino]-6-[[1-(morpholinomethyl)cyclopropyl]methoxy]-1,3,5-triazin-2-yl]spiro[6H-thieno[3,4-b]thiophene-4,3′-azetidine]-3-carbonitrile]	< 10	10 to 100	100 to 1000	10 to 100	
CC(c1cc(Cl)nnc1N)N(C)c1nc(OC[C@@]23CCCN2C[C@H](F)C3)nc(N2CC3(CCc4sc(N)c(C#N)c43)C2)n1 (stereo partly drawn) [Compound 132, 2′-amino-1-(4-((1-(3-amino-6-chloropyridazin-4-yl)ethyl)(methyl)amino)-6-(((2R,7aS)-2-fluorotetrahydro-1H-pyrrolizin-7a(5H)-yl)methoxy)-1,3,5-triazin-2-yl)-5′,6′-dihydrospiro[azetidine-3,4′-cyclopenta[b]thiophene]-3′-carbonitrile]	< 10	10 to 100	1000 to 20000	100 to 1000	
N#Cc1c(N)sc2c1C1(CN(c3nc(OCC4(CN5CCOCC5)CC4)nc(N4CCNC[C@H]4C(F)F)n3)C1)SC2 [Compound 190, (S)-2′-amino-1-(4-(2-(difluoromethyl)piperazin-1-yl)-6-((1-(morpholinomethyl)cyclopropyl)methoxy)-1,3,5-triazin-2-yl)-6′H-spiro[azetidine-3,4′-thieno[3,4-b]thiophene]-3′-carbonitrile]	10 to 100	< 10	100 to 1000	1000 to 20000	
